Read-outs that look alike come from different tables or passages of the source.
Test: Plasma pharmacokinetics of DT2216 in patients, phase 1 dose escalation
Format: in vivo, human
Conditions: human, plasma, iv, plasma; for clearance: read-out: CL (converted); for half-life: read-out: T½ (converted); for Vd: read-out: Vdss; for Tmax: median (min, max)
Procedure: Dose escalation consisted of the administration of DT2216 intravenously twice weekly at several different doses outlined in protocol attached. The starting dose was 0.04 mg/kg, established based on pre-clinical toxicity studies. Safety was evaluated using CTCAE version 5.0. The initial three dose levels enrolled one patient, following which for dose level 4 and 5, a 3 + 3 design was utilized following a 100% incremental dose increase for dose levels 2 to 5 until the first dose limiting toxicity (DLT) in cycle 1 was observed. Thereafter, a modified Fibonacci sequence was used to define dose escalation increments until the maximum tolerated dose (MTD) was reached as described in protocol. If no dose-limiting toxicity (DLT) was observed during the DLT monitoring period of first 28 days, the next patient was enrolled at the next higher dose level. Dose-limiting toxicities (DLTs) during the first treatment cycle were defined as any Grade 5 toxicity; Grade 4 neutropenia lasting > 7 days; febrile neutropenia; Grade 4 thrombocytopenia or Grade 3 thrombocytopenia with clinically significant hemorrhage or lasting ≥ 7 days; and Grade ≥ 3 non-hematologic toxicities, excluding nausea, vomiting, or diarrhea lasting ≤ 3 days or transient laboratory abnormalities resolving within 72 h. Hepatotoxicity meeting Hy’s law criteria was also considered a DLT. Transient Grade 3–4 electrolyte abnormalities resolving to ≤ Grade 2 within 72 h were not considered DLTs.
Patients were allowed a maximum of two intra-patient dose escalations. Patients received DT2216 by intravenous infusion on days 1 and 4 weekly for at least 4 weeks, with each cycle consisting of a 28-day cycle for a maximum duration of 1 year until disease progression, unacceptable toxicity, or other withdrawal criteria, as listed in the protocol. The extent of disease was evaluated using imaging studies and disease-appropriate tumor markers every 8 weeks from day 1 of the first cycle. RP2D was established based on MTD as well as other relevant data, including clinical signals of activity, PK, and PD data.
Premedication prior to each infusion was at the discretion of the investigator or according to institutional guidelines. Patient assessment and follow-up procedures can be found in the schedule of assessments in this study. The clinical response was evaluated using RECIST v1.1 per protocol. Blood samples were collected for PK analysis before and after post-infusion at defined intervals, along with platelet counts. Exploratory biomarkers include (but are not limited to) the assessment of BCL-XL and VHL levels in peripheral white blood cells (WBC).
Throughout the course of the dose escalation trial, only one dose-limiting toxicity was observed, with grade 4 thrombocytopenia at a dose level of 0.32 mg/kg. […] The pharmacokinetic parameters of DT2216 were determined in patients following doses on Cycle 1 Day 1 and Cycle 1 Day 22 (Tables 4 and 5). […] AUC0-∞ values ranged from 8650 to 72,300 ng · h/mL over the dose range of 0.04 mg/kg 0.4 mg/kg. […] The volume of distribution at steady state (Vss) was small (< 100 mL/kg) and consistent across the dose groups. Following repeated dosing, accumulation of DT2216 in plasma was not observed with twice weekly dosing, with accumulation ratio values ranging from 0.74 to 1.07 on Cycle 1 Day 22 ([…]) across the dose groups.

[1] = 0.12 mg/kg, Cycle 1 Day 22, 0.12 mg/kg IV BIW, mean (CV%), N = 1
[2] = 0.24 mg/kg, Cycle 1 Day 1, 0.24 mg/kg IV, mean (CV%), N = 7
[3] = 0.24 mg/kg, Cycle 1 Day 22, 0.24 mg/kg IV BIW, mean (CV%), N = 6
[4] = 0.32 mg/kg, Cycle 1 Day 1, 0.32 mg/kg IV, mean (CV%), N = 5
[5] = 0.32 mg/kg, Cycle 1 Day 22, 0.32 mg/kg IV BIW, mean (CV%), N = 5
[6] = 0.4 mg/kg, Cycle 1 Day 1, 0.4 mg/kg IV, mean (CV%), N = 4
[7] = 0.4 mg/kg, Cycle 1 Day 22, 0.4 mg/kg IV BIW, mean (CV%), N = 4

Cc1ncsc1-c1ccc([C@H](C)NC(=O)[C@@H]2C[C@@H](O)CN2C(=O)[C@@H](NC(=O)CCCCCC(=O)N2CCN(CC[C@H](CSc3ccccc3)Nc3ccc(S(=O)(=O)NC(=O)c4ccc(N5CCN(CC6=C(c7ccc(Cl)cc7)CCC(C)(C)C6)CC5)cc4)cc3S(=O)(=O)C(F)(F)F)CC2)C(C)(C)C)cc1 [DT2216] gave a clearance [1] of 0.138 mL/min/kg, a Cmax (0.12 mg/kg, Cycle 1 Day 22, 0.12 mg/kg IV BIW, mean (CV%), N = 1, read-out: Cmax) of 2190 ng/mL and a half-life [1] of 5.24 h. For the same molecule, the Vd [1] was 0.0665 L/kg, the Tmax (0.12 mg/kg, Cycle 1 Day 22, 0.12 mg/kg IV BIW, N = 1) was 2.5 h and the AUC(0-t) (0.24 mg/kg, Cycle 1 Day 1, 0.24 mg/kg IV, mean (CV%), N = 6, read-out: AUC0−24) was 24500 ng·h/mL. The AUC(0-t) (0.24 mg/kg, Cycle 1 Day 1, 0.24 mg/kg IV, mean (CV%), N = 6, read-out: AUClast) was 37600 ng·h/mL, the AUC(0-inf) (0.24 mg/kg, Cycle 1 Day 1, 0.24 mg/kg IV, mean (CV%), N = 7, read-out: AUC0−∞) was 36500 ng·h/mL and the clearance [2] was 0.122 mL/min/kg. It also gave a Cmax (0.24 mg/kg, Cycle 1 Day 1, 0.24 mg/kg IV, mean (CV%), N = 7, read-out: Cmax) of 4080 ng/mL, a half-life [2] of 10.4 h and a Vd [2] of 0.0839 L/kg. The Tmax (0.24 mg/kg, Cycle 1 Day 1, 0.24 mg/kg IV, N = 7) was 0.75 h, the AUC(0-t) (0.24 mg/kg, Cycle 1 Day 22, 0.24 mg/kg IV BIW, mean (CV%), N = 6, read-out: AUC0−24) was 26300 ng·h/mL and the AUC(0-inf) (0.24 mg/kg, Cycle 1 Day 22, 0.24 mg/kg IV BIW, mean (CV%), N = 6, read-out: AUC0−∞) was 30100 ng·h/mL. The AUC(0-t) (0.24 mg/kg, Cycle 1 Day 22, 0.24 mg/kg IV BIW, mean (CV%), N = 6, read-out: AUClast) was 26400 ng·h/mL, the clearance [3] was 0.15 mL/min/kg and the Cmax (0.24 mg/kg, Cycle 1 Day 22, 0.24 mg/kg IV BIW, mean (CV%), N = 6, read-out: Cmax) was 3090 ng/mL. It also gave a half-life [3] of 7.27 h, a Vd [3] of 0.0939 L/kg and a Tmax (0.24 mg/kg, Cycle 1 Day 22, 0.24 mg/kg IV BIW, N = 6) of 2.5 h. For the same molecule, the AUC(0-inf) (0.32 mg/kg, Cycle 1 Day 1, 0.32 mg/kg IV, mean (CV%), N = 5, read-out: AUC0−∞) was 41500 ng·h/mL, the clearance [4] was 0.132 mL/min/kg and the half-life [4] was 7.09 h. It also gave a Vd [4] of 0.0683 L/kg, an AUC(0-t) (0.32 mg/kg, Cycle 1 Day 1, 0.32 mg/kg IV, mean (CV%), N = 6, read-out: AUC0−24) of 33300 ng·h/mL and an AUC(0-t) (0.32 mg/kg, Cycle 1 Day 1, 0.32 mg/kg IV, mean (CV%), N = 6, read-out: AUClast) of 43200 ng·h/mL. It also gave a Cmax (0.32 mg/kg, Cycle 1 Day 1, 0.32 mg/kg IV, mean (CV%), N = 6, read-out: Cmax) of 5710 ng/mL, a Tmax (0.32 mg/kg, Cycle 1 Day 1, 0.32 mg/kg IV, N = 6) of 0.75 h and an AUC(0-t) (0.32 mg/kg, Cycle 1 Day 22, 0.32 mg/kg IV BIW, mean (CV%), N = 5, read-out: AUC0−24) of 32700 ng·h/mL. For the same molecule, the AUC(0-inf) (0.32 mg/kg, Cycle 1 Day 22, 0.32 mg/kg IV BIW, mean (CV%), N = 5, read-out: AUC0−∞) was 35000 ng·h/mL, the AUC(0-t) (0.32 mg/kg, Cycle 1 Day 22, 0.32 mg/kg IV BIW, mean (CV%), N = 5, read-out: AUClast) was 32900 ng·h/mL and the clearance [5] was 0.154 mL/min/kg. For the same molecule, the half-life [5] was 5.82 h, the Vd [5] was 0.0837 L/kg and the Cmax (0.32 mg/kg, Cycle 1 Day 22, 0.32 mg/kg IV BIW, mean (CV%), N = 6, read-out: Cmax) was 4480 ng/mL. The Tmax (0.32 mg/kg, Cycle 1 Day 22, 0.32 mg/kg IV BIW, N = 6) was 2.5 h, the AUC(0-t) (0.4 mg/kg, Cycle 1 Day 1, 0.4 mg/kg IV, mean (CV%), N = 4, read-out: AUC0−24) was 53000 ng·h/mL and the AUC(0-inf) (0.4 mg/kg, Cycle 1 Day 1, 0.4 mg/kg IV, mean (CV%), N = 4, read-out: AUC0−∞) was 73200 ng·h/mL. For the same molecule, the AUC(0-t) (0.4 mg/kg, Cycle 1 Day 1, 0.4 mg/kg IV, mean (CV%), N = 4, read-out: AUClast) was 72300 ng·h/mL, the clearance [6] was 0.0928 mL/min/kg and the Cmax (0.4 mg/kg, Cycle 1 Day 1, 0.4 mg/kg IV, mean (CV%), N = 4, read-out: Cmax) was 8590 ng/mL. The half-life [6] was 10.7 h, the Vd [6] was 0.0709 L/kg and the Tmax (0.4 mg/kg, Cycle 1 Day 1, 0.4 mg/kg IV, N = 4) was 0.75 h. The AUC(0-t) (0.4 mg/kg, Cycle 1 Day 22, 0.4 mg/kg IV BIW, mean (CV%), N = 4, read-out: AUC0−24) was 53700 ng·h/mL, the AUC(0-inf) (0.4 mg/kg, Cycle 1 Day 22, 0.4 mg/kg IV BIW, mean (CV%), N = 4, read-out: AUC0−∞) was 59500 ng·h/mL and the AUC(0-t) (0.4 mg/kg, Cycle 1 Day 22, 0.4 mg/kg IV BIW, mean (CV%), N = 4, read-out: AUClast) was 54000 ng·h/mL. For the same molecule, the clearance [7] was 0.117 mL/min/kg, the Cmax (0.4 mg/kg, Cycle 1 Day 22, 0.4 mg/kg IV BIW, mean (CV%), N = 4, read-out: Cmax) was 6270 ng/mL and the half-life [7] was 6.7 h. For the same molecule, the Vd [7] was 0.0729 L/kg, the Tmax (0.4 mg/kg, Cycle 1 Day 22, 0.4 mg/kg IV BIW, N = 4) was 2.5 h and the AUC(0-inf) (over dose range 0.04 mg/kg to 0.4 mg/kg IV, read-out: AUC0-∞ values) was 8650 to 72300 ng·h/mL. The Cmax (over dose range 0.04 mg/kg to 0.4 mg/kg IV, read-out: mean Cmax values) was 738 to 8590 ng/mL.

— article PMC12613848, “First in human phase 1 study of DT2216, a selective BCL-xL degrader, in patients with relapsed/refractory solid malignancies” (Journal of Hematology & Oncology, 2025)
